Measurements: US8329454B2, “Device for detecting a cholinesterase-inhibiting substance comprising a hydrophilic photo-crosslinkable resin” (priority 2008, dated 2012)

tested on: cholinesterase; assay: not given; details: prior-art kit AT-10/AT-25 (Agriscreen Ticket 10/25) by NEOGEN; cited from earlier work

Row | Compound | detection limit
1 | CNC(=O)Oc1cccc2ccccc12 [carbaryl] | around 7.0 ppm
2 | COP(=S)(OC)Oc1nc(Cl)c(Cl)cc1Cl [chlorpyrifos-methyl] | ~1.0 ppm
3 | CCOP(=S)(OCC)Oc1nc(Cl)c(Cl)cc1Cl [chlorpyrifos] | ~0.7 ppm
4 | CCOP(=S)(OCC)Oc1cc(C)nc(C(C)C)n1 [diazinone] | ~2.0 ppm

tested on: cholinesterase; assay: Visual detection with the cholinesterase detection device after on-column NBS oxidation (Example 1); details: Example 1: 10 mL aqueous sample, adsorbed on column, 1% NBS oxidation to oxon form, 5 min inhibition, indoxyl acetate 5 min, no coloration

Row | Compound | detected at a concentration level [ppb]
5 | CCOP(=S)(OCC)Oc1cc(C)nc(C(C)C)n1 [diazinone] | 0.1

same assay, conditions: Table 1, tested in the same manner as Example 1 (NBS oxidation)

Row | Compound | Detection Level (ppb)
6 | CCOP(=S)(Oc1ccc([N+](=O)[O-])cc1)c1ccccc1 (centres unmarked) [EPN] | 40
7 | CCOP(=S)(OCC)SCn1nnc2ccccc2c1=O [azinphos-ethyl] | 1
8 | COP(=S)(OC)SCn1nnc2ccccc2c1=O [azinphos-methyl] | 8
9 | CCOP(=S)(OCC)Oc1cc(Cl)c(Br)cc1Cl [bromofos-ethyl] | 10
10 | CCOP(=S)(NC(C)CC)Oc1cc(C)ccc1[N+](=O)[O-] (centres unmarked) [butamifos] | 100
11 | CCOP(=O)(OCC)O/C(=C\Cl)c1ccc(Cl)cc1Cl [chlorfenvinphos] | 40
12 | COP(=S)(OC)Oc1nc(Cl)c(Cl)cc1Cl [chlorpyrifos-methyl] | 1
13 | CCOP(=S)(OCC)Oc1nc(Cl)c(Cl)cc1Cl [chlorpyrifos] | 0.2
14 | CCOP(=S)(OCC)Oc1ccc2c(C)c(Cl)c(=O)oc2c1 [coumafos] | 2
15 | CCOP(=S)(OCC)Oc1ccc(Cl)cc1Cl [dichlofenthion] | 100
16 | COP(=O)(OC)O/C(=C/Cl)c1ccc(Cl)cc1Cl [dimethylvinphos(E)] | 100
17 | COP(=O)(OC)O/C(=C\Cl)c1ccc(Cl)cc1Cl [dimethylvinphos(Z)] | 100
18 | CCOP(=S)(OCC)SCSP(=S)(OCC)OCC [ethion] | 10
19 | CCCSP(=O)(OCC)SCCC [etoprophos] | 100
20 | COP(=S)(OC)Oc1ccc([N+](=O)[O-])c(C)c1 [fenitrothion] | 40
21 | CCOP(=S)(OCC)Oc1ccc([S+](C)[O-])cc1 (centres unmarked) [fensulfothion] | 100
22 | CCOP(=S)(OCC)Oc1cc(-c2ccccc2)on1 [isoxathion] | 0.2
23 | CNC(=O)/C=C(\C)OP(=O)(OC)OC [monocrotophos] | 100
24 | CCOP(=S)(OCC)Oc1ccc([N+](=O)[O-])cc1 [parathion] | 0.8
25 | CCOP(=S)(OCC)SCSCC [phorate] | 80
26 | CCOP(=S)(OCC)SCn1c(=O)oc2cc(Cl)ccc21 [phosalone] | 6
27 | CCCOP(=O)(OCCC)Oc1ccc(SC)cc1 [propafos] | 1
28 | CCOP(=S)(OCC)Oc1ccc(=O)n(-c2ccccc2)n1 [pyridaphenthion] | 1
29 | CCN(CC)c1nc(C)cc(OP(=S)(OC)OC)n1 [pyrimiphos-methyl] | 20
30 | CCOP(=S)(OCC)Oc1cnc2ccccc2n1 [quinalphos] | 0.1
31 | COP1(=S)OCc2ccccc2O1 (centres unmarked) [salithion] | 100
32 | CCCSP(=S)(OCC)Oc1ccc(SC)cc1 (centres unmarked) [sulprofos] | 20
33 | CCOP(=S)(OCC)SCSC(C)(C)C [terbufos] | 10
34 | etorifos | 10

tested on: cholinesterase; assay: Visual detection with the cholinesterase detection device without oxidation treatment (Comparative Example 1, Example 2); assay type: biochemical; details: Comparative Example 1: as Example 1 but no oxidation treatment (no NBS)
Experimental: This is a comparative experiment for confirming the effect of oxidation treatment (NBS solution suction treatment) in Example 1. In the same manner as in Example 1, the column was made to adsorb diazinone in the sample, and then not processed for oxidation treatment (NBS solution suction treatment), diazinone was eluted from the column. The eluate was added to the detection device, and an indoxyl acetate solution was added to the device.
The detection method was to follow the process shown in FIG. 3; however, since a carbamate agrichemical was the object to be detected, the NBS solution suction and discharge operation attained in Example 1 was omitted here.
As a sample, prepared was 10 mL of an aqueous solution of a carbaryl (NAC) standard liquid of a carbamate agrichemical having a diluted concentration of 10 ppb; and this was sucked in the syringe with a column chip connected to the tip thereof, as shown in FIG. 2.
The sucked solution was discharged in a beaker and again sucked, and this cycle was repeated three times whereby the sample NAC was adsorbed by the column. Subsequently, NAC was eluted from the column, and put into the device to undergo an enzyme inhibitory reaction for 5 minutes therein.
After 5 minutes, a coloring substrate of an indoxyl acetate solution was added to the device, and underwent coloration reaction for 5 minutes.
Other agrichemical substances were tested in the same manner as in Example 1 and Example 2, and the following results were obtained.

Row | Compound | detection level [ppm]
35 | CCOP(=S)(OCC)Oc1cc(C)nc(C(C)C)n1 [diazinone] | 5

same assay, conditions: Example 2: 10 mL aqueous sample, adsorbed on column, no NBS step, 5 min inhibition, indoxyl acetate 5 min, no coloration

Row | Compound | detected at a concentration level [ppb]
36 | CNC(=O)Oc1cccc2ccccc12 [carbaryl] | 10

same assay, conditions: Table 1, agrichemicals marked *, taken as tested in the same manner as Example 2 (no NBS oxidation)

Row | Compound | Detection Level (ppb)
37 | Cc1nc(N(C)C)nc(OC(=O)N(C)C)c1C [pirimicarb] | 8
38 | CS/C(C)=N\OC(=O)N(C)SN(C)C(=O)O/N=C(\C)SC [thiodicarb] | 20
